One may read the IC50 as the midpoint of a concentration-inhibition curve. Low values mean greater potency in that assay, high ones weaker potency in that assay.

The values below come from BindingDB's records for doi:10.1016/j.bmcl.2005.08.107 (Bristol-Myers Squibb Pharmaceutical Research Institute, 2005).

The assay has as its target Coagulation factor X (Homo sapiens, UniProt P00742). Briefly: Inhibitory activity against human FXa.

Chain of Coagulation factor X (P00742 41-179 limits assumed): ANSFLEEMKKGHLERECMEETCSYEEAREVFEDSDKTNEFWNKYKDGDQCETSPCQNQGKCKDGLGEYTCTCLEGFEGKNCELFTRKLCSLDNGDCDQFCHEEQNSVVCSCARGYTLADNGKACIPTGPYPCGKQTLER
Chain of Coagulation factor X (P00742 235-488 limits assumed): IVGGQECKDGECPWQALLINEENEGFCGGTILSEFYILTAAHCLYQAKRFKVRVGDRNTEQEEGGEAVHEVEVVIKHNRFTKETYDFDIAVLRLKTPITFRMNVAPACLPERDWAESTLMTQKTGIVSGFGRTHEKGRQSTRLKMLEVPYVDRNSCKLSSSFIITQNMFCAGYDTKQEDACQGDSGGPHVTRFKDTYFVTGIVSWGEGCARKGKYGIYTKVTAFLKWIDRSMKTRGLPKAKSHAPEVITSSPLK

The molecule `Cc1cc2cc(N=C(N[C@H]3CCCCN(CC(=O)N4CCCC4)C3=O)C(C#N)C(=O)OC(C)(C)C)ccc2o1` (stereo partly drawn) [(S,Z)-tert-butyl 2-cyano-3-(2-methylbenzofuran-5-ylamino)-3-(2-oxo-1-(2-oxo-2-(pyrrolidin-1-yl)ethyl)azepan-3-ylamino)acrylate] came in with a half-maximal inhibitory concentration (IC50) of 0.057 µM.
With `Cc1ccc(NC(C[N+](=O)[O-])=N[C@H]2CCCCN(CC(=O)N3CCCC3)C2=O)cc1` [(S,Z)-3-(1-(p-toluidino)-2-nitrovinylamino)-1-(2-oxo-2-(pyrrolidin-1-yl)ethyl)azepan-2-one] the figure was above 34 µM.
With `COc1ccc(C(=O)C(C#N)C(=Nc2ccc3oc(C)cc3c2)N[C@H]2CCCCN(CC(=O)N3CCCC3)C2=O)cc1` (stereo partly drawn) [(S,Z)-2-(4-methoxybenzoyl)-3-(2-methylbenzofuran-5-ylamino)-3-(2-oxo-1-(2-oxo-2-(pyrrolidin-1-yl)ethyl)azepan-3-ylamino)acrylonitrile] the figure was 0.013 µM; with `Cc1cc2cc(N=C(N[C@H]3CCCCN(CC(=O)N4CCCC4)C3=O)C(C#N)C(=O)c3ccc(Cl)cc3)ccc2o1` (stereo partly drawn) [(S,Z)-2-(4-chlorobenzoyl)-3-(2-methylbenzofuran-5-ylamino)-3-(2-oxo-1-(2-oxo-2-(pyrrolidin-1-yl)ethyl)azepan-3-ylamino)acrylonitrile], 0.013 µM; with `Cc1cc2cc(N=C(N[C@H]3CCCCN(CC(=O)N4CCCC4)C3=O)C(C#N)C(=O)NC(N)=O)ccc2o1` (stereo partly drawn) [(S,Z)-1-(2-cyano-3-(2-methylbenzofuran-5-ylamino)-3-(2-oxo-1-(2-oxo-2-(pyrrolidin-1-yl)ethyl)azepan-3-ylamino)acryloyl)urea], 0.013 µM.
With `Cc1cc2cc(N=C(N[C@H]3CCCCN(CC(=O)N4CCCC4)C3=O)C(C#N)C(=O)N3CCC(C)CC3)ccc2o1` (stereo partly drawn) [(S,Z)-3-(2-methylbenzofuran-5-ylamino)-2-(4-methylpiperidine-1-carbonyl)-3-(2-oxo-1-(2-oxo-2-(pyrrolidin-1-yl)ethyl)azepan-3-ylamino)acrylonitrile] the figure was 0.057 µM; with `CN(C)c1ccc(NC(C[N+](=O)[O-])=N[C@H]2CCCCN(CC(=O)N3CCCC3)C2=O)cc1` [(S,Z)-3-(1-(4-(dimethylamino)phenylamino)-2-nitrovinylamino)-1-(2-oxo-2-(pyrrolidin-1-yl)ethyl)azepan-2-one], above 34 µM.
